Laboratory results as given in patent publication US20220296628A1, “RNA COMBINATIONS AND COMPOSITIONS WITH DECREASED IMMUNOSTIMULATORY PROPERTIES” (CureVac AG, priority 2019, published 2022).

How the values were obtained:
[1] = tested on: human peripheral blood mononuclear cells (PBMCs); assay: PBMC stimulation: DOTAP co-transfection of immunostimulatory non-coding RNA (RNAdjuvant) with oligonucleotide, cytokines by CBA; type: cell-based; conditions: DOTAP co-transfection with RNAdjuvant 1 μg/ml, oligonucleotide 0.25 μg/ml (25% weight), supernatant 24 hours, compared to immunostimulatory non-coding RNA only (FIG. 1A)
Procedure: (§1) Human peripheral blood mononuclear cells (PBMCs) were isolated from heparinized blood of healthy volunteers by standard Ficoll-Hypaque density gradient centrifugation (Ficoll 1.078 g/ml). PBMCs were re-suspended in RPMI 1640 supplemented with 10% heat-inactivated FCS. After counting, cells are re-suspended at 50 million cells per ml in fetal calf serum, 10% DMSO, and frozen. Before usage, the cells are thawed.
(§2) For transfection experiments, 2×10^5 human PBMCs per well were seeded into each well of a 96-well plate in X-Vivo 15 medium (Lonza). For preparation of DOTAP complexes containing both immunostimulatory non-coding RNA and a 2′-O-methylated oligonucleotide (SEQ ID NO: 85), the oligonucleotide was first added to immunostimulatory non-coding RNA at a weight percentage of 25%. For preparation of DOTAP complexes containing both PpLuc mRNA and a 2′-O-methylated oligonucleotide, the oligonucleotide was first added to PpLuc mRNA at a weight percentage of 25%. The molar ratio of PpLuc mRNA to oligonucleotide was thus […] (MW (Oligonucleotide)=2907 g/mol, MW (PpLuc mRNA)=652377 g/mol). DOTAP complexes containing either immunostimulatory non-coding RNA or PpLuc mRNA without or with oligonucleotide were formed at a ratio of 3 μl of DOTAP per 1 μg of RNAdjuvant or 1 μg of mRNA. […] To quantify background stimulation, PBMC were incubated either with DOTAP alone (“vehicle”) or medium only. […]
(§3) In supernatants collected from PBMC stimulated without or with 2-O-methylated oligonucleotide, the concentrations of IFN-α, IFN-γ, TNF, were measured by Cytometric Bead Array (CBA) according to the manufacturer's instructions (BD Biosciences) using the following kits: Human Soluble Protein Master Buffer Kit (catalog no. 558264), Assay Diluent (catalog no. 560104), Human IFN-α Flex Set (catalog no. 560379), Human IFN-γ Flex Set (catalog no. 558269), Human TNF Flex Set (catalog no. 560112); all kits from BD Biosciences. The data was analyzed using the FCAP Array v3.0 software (BD Biosciences).

[2] = tested on: human PBMCs; assay: PBMC co-transfection of PpLuc mRNA and antagonists (Table 6), luciferase activity in cell lysate; type: cell-based; conditions: 24 hours post transfection, DOTAP, antagonist 20% weight, compared to PpLuc mRNA without admixture (FIG. 5B)
Procedure: The preparation of human PBMCs was performed according to example 2.1. For transfection experiments 2×10^5 human PBMCs per well were seeded into each well of a 96-well plate in X-Vivo 15 medium (Lonza). For preparation of DOTAP (vehicle) complexes containing both the antagonist (either 2-O-methylated oligonucleotide variants, RNA oligonucleotides, DNA oligonucleotides or small molecules) as well as PpLuc mRNA (SEQ ID NO: 82, same RNA design as shown in table 2), the antagonist was first added to PpLuc mRNA at a weight percentage of 20% (1:5 mRNA: oligo/small molecule). The molar ratio of PpLuc mRNA to antagonist was thus 1:45 (MW (Oligonucleotide)=2907 g/mol, MW (PpLuc mRNA)=652377 g/mol). DOTAP complexes containing PpLuc mRNA and antagonist were formed at a ratio of 5 μl of DOTAP per 1 μg of mRNA and 100 ng were transfected. […] To quantify background stimulation, PBMC were incubated either with DOTAP alone (“vehicle”) or RPMI (“medium”) only. […] Expression analysis was performed by measuring the luciferase activity, which is measured as relative light units (RLU) in a BioTek SynergyHT plate reader. PpLuc activity is measured at 5 seconds measuring time using 50 μl of lysate and 200 μl of luciferin buffer (75 μM luciferin, 25 mM Glycylglycin, pH 7.8 (NaOH), 15 mM MgSO4, 2 mM ATP).

[3] = tested on: human peripheral blood mononuclear cells (PBMCs); assay: PBMC stimulation: DOTAP co-transfection of capped PpLuc mRNA with oligonucleotide, cytokines by CBA; type: cell-based; conditions: DOTAP co-transfection with capped PpLuc mRNA 1 μg/ml, oligonucleotide 0.25 μg/ml (25% weight), supernatant 24 hours, compared to PpLuc mRNA only (FIG. 1B)
Procedure: as §1, §2, §3

[4] = tested on: mice (strain 129SV); assay: In vivo bioluminescence imaging of PpLuc expression after i.v. injection of LNP-formulated PpLuc mRNA with or without oligonucleotide; parameters: species or system mouse; conditions: 24 hours post single i.v. injection, 10 μg or 30 μg of mRNA (either dose), oligo 20% or 6.7% mass, compared to PpLuc mRNA without Gm18 (FIG. 2)
Procedure: For preparation of Lipid nanoparticles (LNP) containing both PpLuc mRNA and 2-O-methylated oligonucleotide, first the 2′-O-methylated oligonucleotide was added to PpLuc mRNA at a weight percentage of either 20% or 6.7% (see Table 3). LNP containing PpLuc mRNA either with or without admixture of 2-O-methylated oligonucleotide were prepared using cationic lipid, cholesterol, PEG-lipid and a neutral lipid. The mRNA was diluted to 1 g/L in citrate buffer, pH 4. The ethanolic lipid solution was mixed with the aqueous RNA solution at a ratio of 1:3 (vol/vol) using a Nanoassemblr (PrecisionNanoSystems). The ethanol was then removed and the buffer replaced by 10 mM HEPES, pH 7.4 comprising 9% Sucrose by dialysis. Finally, the LNP-formulated RNA was adjusted to 0.2 g/L. For in vivo experiments, 8 weeks old female mice (around 25 g, strain 129SV) were injected with the various LNP formulations (see tables 4 and 5). 4 animals were used per group. 10 μg or 30 μg of mRNA formulated with or without 2′-O-methylated oligonucleotide were intravenously injected at a concentration of 0.2 g/l. Bioluminescence imaging was performed 6 hours and 24 hours post LNP injection. […] PpLuc expression was quantified from bioluminescence images recorded for 3 minutes starting 5 minutes after i.v. injection of 3 mg of luciferin (see Table 5).

## 5′-GAG CGmG CCA-3′ (GAGCNGCCA; 2'-O-methyl guanosine at position 5; 9mer oligonucleotide; modified_base (5)..(5) n can be any nucleotide, wherein the nucleotide is 2-O-methylated, preferably a 2-O-methylated guanosine) [Gm18, 9-mer 2′-O-methylated RNA oligonucleotide; position 5 is 2′-O-methylated guanosine (Gm); antagonist of TLR7 and 8]
[1]
  secretion of cytokine INF-a: reduced secretion
  secretion of cytokine INF-y: reduced secretion
  secretion of cytokine TNF: reduced secretion
[2]
  expression of PpLuc in PBMCs: increases the expression
[3]
  secretion of cytokine INF-a: reduced secretion
  secretion of cytokine INF-y: reduced secretion
  secretion of cytokine TNF: reduced secretion
[4]
  expression of PpLuc (bioluminescence imaging): increases the expression
